Activity calls are given as the source filed them. The calls are words filed in the database; no cut-off is given here. Where a SMILES comes first, the peptide text is derived from it. Bridges are numbered along the chain shown (N, C = ends).
Experiments:
[1] = Toxicity in C57BL/6 mouse assessed as histological changes in spleen at 3 nmol/g, iv administered 3 consecutive days by H and E staining based analysis; assay type: organism-based; settings: in vivo
Neuron [2] = test: Neuroprotective activity against NMDA-induced cell death in mouse primary neuron assessed as cell viability at 1 nM preincubated with compound for 1 hrs followed by NMDA addition and measured after 1 hrs by PI staining based analysis relative to control; assay type: functional; settings: time 2 hrs, read-out: Activity
Mus musculus [3] = test: Neuroprotective activity against pilocarpine-induced seizure in C57BL6 mouse assessed as reduction in seizure severity at 3 nmol/g, iv pretreated with compound for 1 hrs followed by pilocarpine induction and measured after 2 hrs; assay type: functional, organism-based; settings: time 3.0 hrs
Neuron [4] = test: Neuroprotective activity against NMDA-induced cell death in mouse primary neuron assessed as cell viability at 10 nM preincubated with compound for 1 hrs followed by NMDA addition and measured after 1 hrs by PI staining based analysis relative to control; assay type: functional; settings: time 2 hrs, read-out: Activity
[5] = Biodistribution in C57BL/6 mouse heart at 3 nmol/g, iv measured after 90 mins post injection using Cy7 labelled compound by fluorescence based analysis; assay type: ADME, organism-based; settings: in vivo, 1.5 h
Neuron [6] = test: Neuroprotective activity against NMDA-induced cell death in mouse primary neuron assessed as cell viability preincubated with compound for 1 hrs followed by NMDA addition and measured after 1 hrs by PI staining based analysis relative to control; assay type: functional; settings: time 2 hrs
[7] = Toxicity in C57BL/6 mouse assessed as histological changes in liver at 3 nmol/g, iv administered 3 consecutive days by H and E staining based analysis; assay type: organism-based; settings: in vivo
[8] = Drug uptake in mouse Primary neuron at 100 nM measured at 20 mins by inverted confocal microscopic analysis; assay type: ADME, cell-based; settings: 0.1 µM
Neuron [9] = test: Neuroprotective activity against NMDA-induced cell death in mouse primary neuron assessed as reduction in cell viability at 100 nM preincubated with compound for 1 hrs followed by NMDA addition and measured after 1 hrs by PI staining based analysis (reference value: 60.01 +/- 4%); assay type: functional; settings: time 2 hrs
[10] = Biodistribution in C57BL/6 mouse lung at 3 nmol/g, iv measured after 90 mins post injection using Cy7 labelled compound by fluorescence based analysis; assay type: ADME, organism-based; settings: in vivo, 1.5 h
[11] = Biodistribution in C57BL/6 mouse brain at 3 nmol/g, iv measured after 90 mins post injection using Cy7 labelled compound by fluorescence based analysis; assay type: ADME, organism-based; settings: in vivo, 1.5 h
[12] = Biodistribution in C57BL/6 mouse spleen at 3 nmol/g, iv measured after 90 mins post injection using Cy7 labelled compound by fluorescence based analysis; assay type: ADME, organism-based; settings: in vivo, 1.5 h
Neuron [13] = test: Cytotoxicity against mouse primary neuron upto 1 uM incubated for 24 hrs; assay type: toxicity, cell-based
[14] = Biodistribution in C57BL/6 mouse lung at 3 nmol/g, iv measured after 24 hrs post injection using Cy7 labelled compound by fluorescence based analysis; assay type: ADME, organism-based; settings: in vivo
[15] = Biodistribution in C57BL/6 mouse liver at 3 nmol/g, iv measured after 90 mins post injection using Cy7 labelled compound by fluorescence based analysis; assay type: ADME, organism-based; settings: in vivo, 1.5 h
[16] = Biodistribution in C57BL/6 mouse kidney at 3 nmol/g, iv measured after 90 mins post injection using Cy7 labelled compound by fluorescence based analysis; assay type: ADME, organism-based; settings: in vivo, 1.5 h
Neuron [17] = test: Neuroprotective activity against Amyloid beta-induced cell death in mouse primary neuron assessed as cell viability at 0.1 nM preincubated with compound for 1 hrs followed by Amyloid beta addition and measured after 1 hrs by PI staining based analysis; assay type: functional
[18] = Toxicity in C57BL/6 mouse assessed as histological changes in kidney at 3 nmol/g, iv administered 3 consecutive days by H and E staining based analysis; assay type: organism-based; settings: in vivo
Mus musculus [19] = test: Neuroprotective activity against pilocarpine-induced seizure in C57BL6 mouse assessed as survival rate at 3 nmol/g, iv pretreated with compound for 1 hrs followed by pilocarpine induction and measured after 2 hrs relative to control; assay type: functional; settings: time 3 hrs
Neuron [20] = test: Neuroprotective activity against Amyloid beta-induced cell death in mouse primary neuron assessed as cell viability preincubated with compound for 1 hrs followed by Amyloid beta addition and measured after 1 hrs by PI staining based analysis relative to control; assay type: functional; settings: time 2 hrs
Neuron [21] = test: Neuroprotective activity against Amyloid beta-induced cell death in mouse primary neuron assessed as cell viability at 100 nM preincubated with compound for 1 hrs followed by Amyloid beta addition and measured after 1 hrs by PI staining based analysis; assay type: functional; settings: time 2.0 hrs
[22] = Toxicity in C57BL/6 mouse assessed as histological changes in lung at 3 nmol/g, iv administered 3 consecutive days by H and E staining based analysis; assay type: organism-based; settings: in vivo
Mus musculus [23] = test: Neuroprotective activity against pilocarpine-induced seizure in C57BL6 mouse assessed as survival rate at 30 nmol/g, po pretreated with compound for 1 hrs followed by pilocarpine induction and measured after 2 hrs relative to control; assay type: functional; settings: time 3 hrs
Disks large homolog 4 = Disks large homolog 4 (Homo sapiens, UniProt P78352); test: Binding affinity to PSD-95 (unknown origin) assessed as binding constant (Kd) by MST analysis
[24] = Biodistribution in C57BL/6 mouse spleen at 3 nmol/g, iv measured after 24 hrs post injection using Cy7 labelled compound by fluorescence based analysis; assay type: ADME, organism-based; settings: in vivo
[25] = Toxicity in C57BL/6 mouse assessed as change in alanine transaminase level at 3 nmol/g, iv administered 3 consecutive days; assay type: organism-based; settings: in vivo
Mus musculus [26] = test: Neuroprotective activity against pilocarpine-induced seizure in C57BL6 mouse assessed as reduction in seizure severity at 30 nmol/g, po pretreated with compound for 1 hrs followed by pilocarpine induction and measured after 2 hrs; assay type: functional, organism-based; settings: time 3.0 hrs

Sequence of Disks large homolog 4 (P78352 whole entry): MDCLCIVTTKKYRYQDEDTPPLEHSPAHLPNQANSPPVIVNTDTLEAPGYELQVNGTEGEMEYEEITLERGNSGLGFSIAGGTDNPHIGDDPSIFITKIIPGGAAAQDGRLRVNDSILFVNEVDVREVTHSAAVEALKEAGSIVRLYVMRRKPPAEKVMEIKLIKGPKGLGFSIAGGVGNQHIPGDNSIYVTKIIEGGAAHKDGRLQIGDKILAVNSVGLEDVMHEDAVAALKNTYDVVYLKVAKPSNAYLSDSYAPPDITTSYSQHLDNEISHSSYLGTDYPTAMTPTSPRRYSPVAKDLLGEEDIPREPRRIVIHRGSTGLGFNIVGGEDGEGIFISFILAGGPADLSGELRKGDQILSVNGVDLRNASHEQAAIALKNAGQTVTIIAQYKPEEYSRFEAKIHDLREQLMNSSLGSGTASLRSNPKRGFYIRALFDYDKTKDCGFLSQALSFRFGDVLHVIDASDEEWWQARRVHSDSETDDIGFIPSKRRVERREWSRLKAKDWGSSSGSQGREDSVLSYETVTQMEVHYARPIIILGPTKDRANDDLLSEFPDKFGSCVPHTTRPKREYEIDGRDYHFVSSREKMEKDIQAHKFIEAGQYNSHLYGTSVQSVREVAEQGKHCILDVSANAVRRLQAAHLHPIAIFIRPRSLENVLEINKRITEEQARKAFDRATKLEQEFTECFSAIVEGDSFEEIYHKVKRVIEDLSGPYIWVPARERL

CC[C@H](C)[C@@H]1NC(=O)[C@@H]2CSSC[C@@H]3NC(=O)[C@H](C(C)C)NC(=O)[C@H](CC(=O)O)NC(=O)[C@H](CO)NC(=O)[C@H](CCC(=O)O)NC(=O)[C@H]([C@@H](C)CC)NC(=O)[C@H](CO)NC(=O)[C@H](CO)NC(=O)[C@H](CC(C)C)NC(=O)[C@H](CCCCN)NC(=O)[C@@H]4CSSC[C@H](NC(=O)[C@H](CC(=O)O)NC(=O)[C@H](CO)NC(=O)[C@H](CC(=O)O)NC(=O)[C@H](CCCNC(=N)N)NC(=O)[C@H](CCCNC(=N)N)NC(=O)[C@H](CSSC[C@H](NC1=O)C(=O)N[C@@H](CCCNC(=N)N)C(=O)NCC(=O)N[C@@H](CC(N)=O)C(=O)NCC(=O)N[C@@H](Cc1ccc(O)cc1)C(=O)N4)NC(=O)[C@H](CCCNC(=N)N)NC(=O)[C@H](CCCNC(=N)N)NC(=O)[C@H](CCCNC(=N)N)NC(=O)[C@H](CCCNC(=N)N)NC(=O)[C@H](CC(C)C)NC(=O)[C@H]([C@@H](C)CC)NC(=O)[C@H](CCCNC(=N)N)NC(=O)[C@@H]1CCCN1C3=O)C(=O)N1CCC[C@H]1C(=O)NCC(=O)N[C@@H](C)C(=O)N2 (cyclo(ACICRGNGYCKLSSIESDVCPRILRRRRCRRDSDCPG); disulfide 2-20, 4-29, 10-35)
Activity [1]: Non-toxic
viability at 0.001 µM (Neuron [2]): 39.8%
Activity (Mus musculus [3]): Active
viability at 0.01 µM (Neuron [4]): 22.4%
Drug uptake [5]: Active
Activity (Neuron [6]): 18.2%
Activity [7]: Non-toxic
Drug uptake [8]: Active
Activity (Neuron [9]): 8.56%
Drug uptake [10]: Active
Drug uptake [11]: Active
Drug uptake [12]: Active
Activity (Neuron [13]): Non-toxic
Drug uptake [14]: Active
Drug uptake [15]: Active
Drug uptake [16]: Active
Activity (Neuron [17]): Active
Activity [18]: Non-toxic
Survival (Mus musculus [19]): 75%
Activity (Neuron [20]): 20.9%
Activity (Neuron [21]): Active
Activity [22]: Non-toxic
Survival (Mus musculus [23]): 50%
Kd (Disks large homolog 4): 1.8 µM
Drug uptake [24]: Not_active
Activity [25]: Toxic
Activity (Mus musculus [26]): Not active; Slightly Lower Seizure Severity

Source: ChEMBL document CHEMBL6114943, “Engineered Cyclotide Blocks Neuronal Excitotoxicity” (J Med Chem, 2025)
